# Source: patent US20240189278A1, “NOVEL COMPOUNDS AND METHODS FOR INCREASING KLOTHO GENE EXPRESSION” (Klotho Therapeutics, Inc., priority 2017, published 2024)
# Experiments:
# Assay type in all cases: in vivo, mouse
# [1] = tested on: aged mice; assay: Blood pressure by VPR tail-cuff method in aged mice
# Procedure: (§1) Animal study protocols. This example was performed according to the guide lines of the National Institute of Health on the care and use of laboratory animals and approved by the institutional Animal Care and Use Committee of University of Oklahoma Health Science Center. AU mice were housed in cages at room temperature (2S±PC) and were provided with Purina laboratory chow No 5001) and tap Water and lithium. 6 adult mice (12 months) and 20 old mice (24-26 months) mice were next in this study. The old (aged) mice were randomly divided into three subgroups and each group had 6 or 7 mice. One subgroup received compound H (10 mg/kg/day1, IP, Enamine LLC, Monmouth Jct., NJ) and one group received an equal volume of DMSO (dimethyl sulfoxide, 5%) and served as a control. The third group received no treatment Blood pressure was measured before and after treatment with the active agent at 1 week and 2 week. Pulse wave velocity (PWV) was measured after 2 weeks treatment with active agent all animals were sacrificed and perfused transcardially with PBS under deep anesthesia (ketamine xylazine, 90/10 mg, IP). The aortas were then quickly removed, washed and cut into pieces for subsequent analyses.
# Measurement of Blood Pressure: Blood pressure was measured by the volume-pressure recording (VPR) tail-cuff method with slight (28° C.) but not heating of the tail using it CODA none-invasive blood pressure monitoring system (Kent Scientific). This method of measurement has been validated by using a telemetry system. Animals were gently handled and trained for the VPR tail-cuff measurement to minimize handling stress. No signs of stress were observed during BP measurements. The operator was also strictly trained for the measurement procedure. At least 20 stable cycles data were obtained for the result analysis for each measurement.
# [2] = tested on: collagen-1; assay: Collagen in aortas of aged mice (staining and western blot)
# Procedure: as §1, with “One subgroup received compound H (10 mg/kg/day1, IP, Enamine LLC, Monmouth Jct., NJ) and one group received an equal volume of DMSO (dimethyl sulfoxide, 5%) and served as a control.” left out, “The aortas were then quickly removed, washed and cut into pieces for subsequent analyses.” left out
# Histological and Immunohistochemical Staining: Thoracic aortas were quickly excised and placed in cold (4′T) physiological saline solution. […] Aorta rings were post-fixed in 4% paraformaldehyde, embedded in paraffin and sectioned at […] thickness, Collagen was quantified by Masson' s trichrome staining as described previously. […] Blue-stained collagen areas were quantified with ImageJ (NIH, Bethesda, USA) film 4-5 regions per section. […]
# [3] = tested on: ALP; assay: Western blot of ALP, aortas of aged mice
# Procedure: as §1, with “The aortas were then quickly removed, washed and cut into pieces for subsequent analyses.” left out
# (§2) Western Blot Analysis: Protein samples from the thoracic aorta were prepared in Lysis buffer as described previously. […] Protein abundance on western blots was quantified densitometry using Image lab software (Bio-Rad, Hercules, CA).
# [4] = tested on: Klotho mRNA; assay: RT-PCR of Klotho mRNA in kidney of aged mice
# Procedure: as §1
# Reverse transcription-PCR (RT-PCR): Total RNA was extracted using a Direct˜zol T!vl RNA Miniprep kit (Zymo Research, Irvine CA) from kidney of adult and aged mice. […]
# [5] = tested on: DNA methyltransferase; assay: DNA methyltransferase activity in aged mice; conditions: 2 weeks treatment
# Procedure: as §1, with “One subgroup received compound H (10 mg/kg/day1, IP, Enamine LLC, Monmouth Jct., NJ) and one group received an equal volume of DMSO (dimethyl sulfoxide, 5%) and served as a control.” left out, “The aortas were then quickly removed, washed and cut into pieces for subsequent analyses.” left out
# Measurement of DNA Demethylase and DNA Methylation force Activity. The DNA demethylase and DNA methyltransferase activity was measured by using DNA demethylase activity qualification kit (Abeam˜Cambridge, MA) and methyltransferase coloritnetxic assay kit (Cayman Chemical Company, Ann Arbor, Michigan). […] The absorbance was read at […] for DNA methylene activity assay and 510 nm for DNA methyltransferase activity using BioTeck Multi-Mole Microplate Readers.
# [6] = tested on: MMP2; assay: Western blot of MMP2, aortas of aged mice
# Procedure: as §1, with “The aortas were then quickly removed, washed and cut into pieces for subsequent analyses.” left out
# as §2
# [7] = tested on: full-length Klotho; assay: Western blot of full-length Klotho in kidney of aged mice; conditions: kidney of 24-26 month-old mice
# [8] = tested on: Klotho gene; assay: Methylation analyses of Klotho gene (methylation-specific PCR); conditions: kidney of aged mice, 2 weeks treatment
# Procedure: as §1, with “The aortas were then quickly removed, washed and cut into pieces for subsequent analyses.” left out
# Methylation Analyses of Klotho Gene: The methylation status of CpG islands of mice Klotho gene was analyzed using methylation-specific PCR (MSP) and bisulfite sequencing. […] The methylation index was calculated as (band intensity of MSP with methylated primers)/(band intensity of inputted control). […]
# [9] = 10 mg/kg/day IP, 2 weeks treatment
smiles,measurement,setting,value
"O=C(Nc1ccccc1Cl)c1c[nH]c2ccccc12 [active agent, N-(2-chlorophenyl)-Ul-indde-3-carboxamide]",Diastolic blood pressure,[1]; [9],decreased
same,Mean blood pressure,[1]; [9],decreased
same,Pulse pressure,[1]; [9],decreased
same,Systolic blood pressure,[1]; [9],decreased
same,Blood pressure,[1]; after 1 week of treatment,decreased
same,Collagen production,[2],decreased
same,ALP expression,[3],decreased
same,Secreted Klotho mRNA expression,[4],increased
same,DNA methyltransferase activity,[5],did not affect
same,MMP2 protein expression,[6],decreased
same,Full-length Klotho expression,[7],did not affect
same,Methylation of Klotho gene,[8],inhibited
